Holding throughout (type): cell-based
Assay [1] deals with Clavibacter michiganensis. The assay can be described thus: In-vitro inhibition assay (MIC and LC), Example 3. As to conditions: for MIC (>90% inhibition): 1-2 days at 25° C.; for LC (lethal concentration, 100% inhibition): at least 4 days of incubation. How it is done: (§1) In-vitro inhibition assays were performed in sterile flat-bottom 96-well plates (Greiner bio-one, Frickenhausen). Antimicrobial peptides were dissolved in 0.01% acetic acid containing 0.2% BSA (500 μg/ml), filter sterilized and stored at −20° C. For inhibition assays dilutions of peptides ranging from 5 to 200 μg/ml were prepared and 10 μl (antibacterial assay) or 20 (antifungal assay) of each concentration was loaded per well.
(§2) Bacteria colonies from overnight agar plate cultures were resuspended into 5 ml LB-medium or HPG-medium (OD600 nm=0.08-0.1) and diluted into LB-medium/HPG-medium (1:100). 90 μl of this suspension containing about 10^5-10^6 CFU/ml of tested bacteria were added to each well resulting in final peptide concentrations of 0, 0.5, 1, 2, 5, 10, and 20 μg/ml. […] The lowest concentration, in which there is no observable growth (>90% inhibition) is referred to as minimal inhibitory concentration (MIC). […] For each peptide concentration two identical inhibition assays were performed.

The test system of assay [2] is Xanthomonas vesicatoria. Kind of assay: In-vitro inhibition assay (MIC and LC), Example 3. As to conditions: for MIC (>90% inhibition): 1-2 days at 25° C.; for LC (lethal concentration, 100% inhibition): at least 4 days of incubation. How it is done: as §1, §2
The subject of assay [3] is Pseudomonas syringae pv. syringae. As to conditions: Pseudomonas syringae pv. syringae; for MIC (>90% inhibition): 1-2 days at 25° C.; for LC (lethal concentration, 100% inhibition): at least 4 days of incubation. How it is done: as §1, §2
In assay [4] the test system is Pseudomonas syringae pv. tomato. As to conditions: for LC (lethal concentration, 100% inhibition): at least 4 days of incubation. How it is done:
as §1, §2

Assay [5] concerns Pseudomonas corrugata. As to conditions: Pseudomonas corrugata; for MIC (>90% inhibition): 1-2 days at 25° C.; for LC (lethal concentration, 100% inhibition): at least 4 days of incubation. How it is done:
as §1, §2

For assay [6], the system named is Pectobacterium carotovorum. Conditions: Pectobacterium carotovorum; for MIC (>90% inhibition): 1-2 days at 25° C.; for LC (lethal concentration, 100% inhibition): at least 4 days of incubation. How it is done: as §1, §2
Where [7] appears, read: Pseudomonas syringae pv. tomato.
[8] abbreviates: Pseudomonas syringae pv. tomato, 1-2 days at 25° C.

The values below come from patent publication US20110294722A1, “ANTIMICROBIAL PEPTIDES” (priority 2008, published 2011).

Where two headings read alike, the source gives them in different places. No end group written: not given here.

Take RKKKLKIIKRLI-NH2 [SP1-7]: the “MIC (>90% inhibition)” value in assay [1] is 2.5/2.5 μg/ml; in assay [2], 1.0/1.0 μg/ml; in assay [3], 0.1 µg/mL; in assay [4], 10/10 μg/ml; in assay [5], 0.5 µg/mL; in assay [6], >10/>10 μg/ml. In addition, the “LC (lethal concentration, 100% inhibition)” value in assay [1] was 2.5/2.5 μg/ml; in assay [2], 1.0/1.0 μg/ml; in assay [3], 0.25 µg/mL; in assay [4] (setting [7]), 10/10 μg/ml; in assay [5], 2.5 µg/mL; in assay [6] it was >10/>10 μg/ml.

RKKKLKVVKRLV-NH2 [SP1-6]: the “MIC (>90% inhibition)” value in assay [1] was 10/>10 μg/ml; in assay [2], >10/>10 μg/ml; in assay [3] it was 5.0 µg/mL; in assay [4] (setting [8]), 1.0/1.0 μg/ml; in assay [5], >10/>10 μg/ml; in assay [6], >10/>10 μg/ml. Moreover, the “LC (lethal concentration, 100% inhibition)” value was 10/>10 μg/ml in assay [1]; >10/>10 μg/ml in assay [2]; more than 10 µg/mL in assay [3]; 1.0/1.0 μg/ml in assay [4] (setting [7]); >10/>10 μg/ml in assay [5]; >10/>10 μg/ml in assay [6].

As to RKKKVKLLKRLV-NH2 [SP1-3], the “MIC (>90% inhibition)” value in assay [1] is >10/>10 μg/ml; in assay [2] it was >10/>10 μg/ml; in assay [3], 0.25 µg/mL; in assay [4] (setting [8]), 5.0 µg/mL; in assay [5] it was 2.5/2.5 μg/ml; in assay [6], >10/>10 μg/ml. The “LC (lethal concentration, 100% inhibition)” value in assay [1] is >10/>10 μg/ml; in assay [2], >10/>10 μg/ml; in assay [3], 1.0 µg/mL; in assay [4] (setting [7]) it was 10 µg/mL; in assay [5], 2.5/2.5 μg/ml; in assay [6], >10/>10 μg/ml.

For RKKRKKLIKRLI-NH2 [Sp1-19], the “MIC (>90% inhibition)” value in assay [1] is 5.0/5.0 μg/ml; in assay [2] it was 5.0 µg/mL; in assay [3] it was less than 0.1 µg/mL; in assay [4] (setting [8]), >10/>10 μg/ml; in assay [5], 0.5 µg/mL; in assay [6] it was >10/>10 μg/ml. Also, the “LC (lethal concentration, 100% inhibition)” value in assay [1] is 5.0/5.0 μg/ml; in assay [2], more than 10 µg/mL; in assay [3] it was 5.0 µg/mL; in assay [4] (setting [7]), >10/>10 μg/ml; in assay [5], 1.0 µg/mL; in assay [6], >10/>10 μg/ml.

In the case of RKKRKKLLKRLI-NH2 [SP1-20], the “MIC (>90% inhibition)” value in assay [1] is 5.0 µg/mL; in assay [2], 10/>10 μg/ml; in assay [3] it was 0.25 µg/mL; in assay [4] (setting [8]), 10/>10 μg/ml; in assay [5], 0.5/0.5 μg/ml; in assay [6] it was >10/>10 μg/ml. The “LC (lethal concentration, 100% inhibition)” value in assay [1] was 10 µg/mL; in assay [2] it was 10/>10 μg/ml; in assay [3], 10 µg/mL; in assay [4] (setting [7]), 10/>10 μg/ml; in assay [5], 0.5/0.5 μg/ml; in assay [6], >10/>10 μg/ml.

With RKKRKKLLKRLL-NH2 [SP1-18], the “MIC (>90% inhibition)” value was 5.0/5.0 μg/ml in assay [1]; 5.0 µg/mL in assay [2]; 0.1 µg/mL in assay [3]; 1.0 µg/mL in assay [4] (setting [8]); 0.25 µg/mL in assay [5]; >10/>10 μg/ml in assay [6]. The “LC (lethal concentration, 100% inhibition)” value in assay [1] is 5.0/5.0 μg/ml; in assay [2], 10 µg/mL; in assay [3] it was 5.0 µg/mL; in assay [4] (setting [7]) it was 0.5 µg/mL; in assay [5], 0.5 µg/mL; in assay [6], >10/>10 μg/ml.

RKKRLKLLKRLL-NH2 [SP1-1]: the “MIC (>90% inhibition)” value in assay [1] was 2.5/2.5 μg/ml; in assay [2], 0.1 µg/mL; in assay [3], 0.1/0.1 μg/ml; in assay [4] it was >10/>10 μg/ml; in assay [5] it was less than 0.1 µg/mL. Besides, the “LC (lethal concentration, 100% inhibition)” value in assay [1] is 2.5/2.5 μg/ml; in assay [2] it was 0.25 µg/mL; in assay [3], 0.1/0.1 μg/ml; in assay [4] (setting [7]) it was >10/>10 μg/ml; in assay [5], 0.25 µg/mL; in assay [6] it was >10/>10 μg/ml.

Take RKKRLKVVKRLV-NH2 [SP1-4]: the “MIC (>90% inhibition)” value in assay [1] is >10/>10 μg/ml; in assay [2], >10/>10 μg/ml; in assay [3], 5.0 µg/mL; in assay [4] (setting [8]), 2.5 µg/mL; in assay [5] it was >10/>10 μg/ml; in assay [6], >10/>10 μg/ml. In addition, the “LC (lethal concentration, 100% inhibition)” value in assay [1] is >10/>10 μg/ml; in assay [2], >10/>10 μg/ml; in assay [3], more than 10 µg/mL; in assay [4] (setting [7]), more than 10 µg/mL; in assay [5], >10/>10 μg/ml; in assay [6] it was >10/>10 μg/ml.

Turning to RKKRLRVVRRLV-NH2 [SP1-5], the “MIC (>90% inhibition)” value in assay [1] is >10/>10 μg/ml; in assay [2], >10/>10 μg/ml; in assay [3] it was >10/>10 μg/ml; in assay [4] (setting [8]) it was 1.0 µg/mL; in assay [5], 5.0 µg/mL; in assay [6], >10/>10 μg/ml. Besides, the “LC (lethal concentration, 100% inhibition)” value in assay [1] is >10/>10 μg/ml; in assay [2], >10/>10 μg/ml; in assay [3] it was >10/>10 μg/ml; in assay [4] (setting [7]) it was 2.5 µg/mL; in assay [6], >10/>10 μg/ml.

As for RKKRVKLLKRLV-NH2 [SP1-2], the “MIC (>90% inhibition)” value in assay [1] was 10/>10 μg/ml; in assay [2], 5.0 µg/mL; in assay [3] it was 2.5 µg/mL; in assay [4] (setting [8]) it was 5.0/5.0 μg/ml; in assay [5], 0.5 µg/mL; in assay [6], >10/>10 μg/ml. Moreover, the “LC (lethal concentration, 100% inhibition)” value was 10/>10 μg/ml in assay [1]; more than 10 µg/mL in assay [2]; 5.0 µg/mL in assay [3]; 5.0/5.0 μg/ml in assay [4] (setting [7]); 2.5 µg/mL in assay [5]; >10/>10 μg/ml in assay [6].
